{
  "source": "patent US12068150B2",
  "about": "“Substrate cleaning solution, and using the same, method for manufacturing cleaned substrate and method for manufacturing device” (Merck Patent GmbH, priority 2018, dated 2024)",
  "assay": "Evaluation of Solubility in 5.0 mass % ammonia water",
  "type": "physicochemical",
  "conditions": "100 ppm and 1,000 ppm, shaken 3 hours, checked visually; for (B) Solubitity: component (B)",
  "experimental": "The solubility can be evaluated by known methods. For example, it can be determined under the condition of 20-35° C. (more preferably 25±2° C.) by providing a flask charged with 100 ppm of the above (A) or the below-mentioned (B) in 5.0 mass % ammonia water, covering the flask with a cap, shaking for 3 hours in a shaker, and confirming whether (A) or (B) is dissolved or not. The shaking may be stirring. Dissolution can be also judged visually. […] In the present specification, soluble includes slightly soluble in a broad sense. In the present specification, the solubility becomes low in the order of insoluble, hardly soluble and soluble. In the present specification, slightly soluble is less soluble than soluble and more soluble than hardly soluble in a narrow sense.\n4 mg of each component (for example, 2,2-bis (4-hydroxyphenyl) propane) to be used thereafter is put in a 50 mL sample bottle, and 5.0 mass % ammonia water is added to make the total amount to 40 g. Covering this with a cap, it is shaken and stirred for 3 hours. This gives a liquid having a component concentration of 100 ppm.\nThe same procedure as described above is carried out except that the amount of each component added is changed to 40 mg, and a liquid having a component concentration of 1,000 ppm is obtained. Their solubility is checked visually. Evaluation criteria are as shown below.\nX: When the dissolution residue is confirmed at 100 ppm and 1,000 ppm, it is judged to be insoluble or hardly soluble.\nY: When the dissolution residue is not confirmed at 100 ppm but confirmed at 1,000 ppm, it is judged to be slightly soluble.\nZ: When the dissolution residue is confirmed at neither 100 ppm nor 1,000 ppm, it is judged to be soluble.",
  "data": [
    {"smiles": "Oc1ccc(C(c2ccccc2)(c2ccccc2)c2ccc(O)cc2)cc1", "note": "[A11, 4,4′-dihydroxytetraphenylmethane]", "values": [
      {"measurement": "(A) Solubitity", "setting": "component (A)", "value": "X (When the dissolution residue is confirmed at 100 ppm and 1,000 ppm, it is judged to be insoluble or hardly soluble.)"}
    ]},
    {"smiles": "CC(C)(c1ccc(O)cc1)c1ccc(O)cc1", "note": "[B1, 2,2-bis(4-hydroxyphenyl)propane]", "values": [
      {"measurement": "(B) Solubitity", "value": "Y (When the dissolution residue is not confirmed at 100 ppm but confirmed at 1,000 ppm, it is judged to be slightly soluble.)"}
    ]},
    {"smiles": "Oc1ccc(CC(c2ccc(O)cc2)(c2ccc(O)cc2)c2ccc(O)cc2)cc1", "note": "[B2, 1,2,2,2-tetrakis(4-hydroxyphenyl)ethane]", "values": [
      {"measurement": "(B) Solubitity", "value": "Z (When the dissolution residue is confirmed at neither 100 ppm nor 1,000 ppm, it is judged to be soluble.)"}
    ]},
    {"smiles": "OC1CCCC(O)C1", "note": "(centres unmarked) [B3, 1,3-cyclohexanediol]", "values": [
      {"measurement": "(B) Solubitity", "value": "Z (When the dissolution residue is confirmed at neither 100 ppm nor 1,000 ppm, it is judged to be soluble.)"}
    ]},
    {"smiles": "Cc1ccc(O)c(Cc2cc(C)cc(Cc3cc(C)ccc3O)c2O)c1", "note": "[B4, 2,6-bis[(2-hydroxy-5-methylphenyl)methyl]-4-methylphenol]", "values": [
      {"measurement": "(B) Solubitity", "value": "Y (When the dissolution residue is not confirmed at 100 ppm but confirmed at 1,000 ppm, it is judged to be slightly soluble.)"}
    ]},
    {"smiles": "Cc1ccc(O)c(Cc2cc(C)ccc2O)c1", "note": "[B5, 2,2′-methylenebis(4-methylphenol)]", "values": [
      {"measurement": "(B) Solubitity", "value": "Z (When the dissolution residue is confirmed at neither 100 ppm nor 1,000 ppm, it is judged to be soluble.)"}
    ]},
    {"smiles": "Oc1ccc(-c2ccc(O)cc2)cc1", "note": "[B6, 4,4′-dihydroxybiphenyl]", "values": [
      {"measurement": "(B) Solubitity", "value": "Y (When the dissolution residue is not confirmed at 100 ppm but confirmed at 1,000 ppm, it is judged to be slightly soluble.)"}
    ]},
    {"smiles": "Oc1ccc2cc(O)ccc2c1", "note": "[B7, 2,6-naphthalenediol]", "values": [
      {"measurement": "(B) Solubitity", "value": "Y (When the dissolution residue is not confirmed at 100 ppm but confirmed at 1,000 ppm, it is judged to be slightly soluble.)"}
    ]},
    {"smiles": "CC(C)(O)C#CC(C)(C)O", "note": "[B8, 2,5-dimethyl-3-hexyne-2,5-diol]", "values": [
      {"measurement": "(B) Solubitity", "value": "Z (When the dissolution residue is confirmed at neither 100 ppm nor 1,000 ppm, it is judged to be soluble.)"}
    ]},
    {"smiles": "CCC(C)(O)C#CC(C)(O)CC", "note": "(centres unmarked) [B9, 3,6-dimethyl-4-octin-3,6-diol]", "values": [
      {"measurement": "(B) Solubitity", "value": "Z (When the dissolution residue is confirmed at neither 100 ppm nor 1,000 ppm, it is judged to be soluble.)"}
    ]},
    {"smiles": "CC(C)(C)c1cc(O)c(C(C)(C)C)cc1O", "note": "[B10, 2,5-di-tert-butylhydroquinone]", "values": [
      {"measurement": "(B) Solubitity", "value": "Z (When the dissolution residue is confirmed at neither 100 ppm nor 1,000 ppm, it is judged to be soluble.)"}
    ]}
  ]
}
